Legend:
[1] = tested on: phospho-ACC, ACC, FAS, MTP and ApoB; experiment: Western blot of liver proteins after ICV glucose; type: in vivo, rat
Experimental: Western blot analyses. Liver tissue (50-100 mg) was homogenized in a detergent-based lysis buffer (M-PER, Pierce) supplemented with protease and phosphatase inhibitors. The extracts were incubated on ice for 20 min and then centrifuged at 15,000×g to remove tissue debris; the supernatants were saved and frozen at −80 C until analysis. Fifty μg of protein were heat-denatured in SDS-PAGE sample buffer and resolved on denaturing (SDS) 10% polyacrylamide gels (SDS-PAGE). Fractionated proteins were electrophoretically transferred to nitrocellulose membranes by standard procedures. Membranes were immunoblotted with the appropriate primary antibodies and immune complexes were detected by enhanced chemiluminescence (ECL) (Western Lightning, Perkin Elmer Life Sciences) using horseradish peroxidase conjugated secondary antibodies. Bands were imaged on X-ray film and digitized for quantification using ImageQuant software (Molecular Dynamics). β-tubulin was used for loading normalization. Antibodies. Rabbit antibodies to acetyl Co-A carboxylase and phospho-acetyl Co-A carboxylase (Ser79) were from Cell Signaling Technology (Beverly, Mass.); fatty acid synthetase (FAS) and microsomal triglyceride transfer protein (MTP) antibodies were from BD Biosciences Pharmingen (San Jose, Calif.); cholesterol hydroxylase 7α (CYP7A1) and ApoB-100 antibodies were from Santa Cruz Biotechnology (Santa Cruz, Calif.); mouse monoclonal β-tubulin antibodies were obtained from Covance Research Products (Berkeley, Calif.).

male Sprague-Dawley rats = experiment: ICV infusion: plasma triglycerides and metabolites under basal and pancreatic clamp conditions; type: in vivo, rat
Excerpt: Animal preparation. We studied 10-week-old male Sprague-Dawley rats. Rats underwent stereotaxic surgery to indwell single catheters in the third cerebral ventricle {intracerebroventricular (ICV)(Obici et al., 2001) or bilateral catheters into the mediobasal hypothalamus (Lam et al., 2005c). One week later, we placed indwelling catheters in the internal jugular vein and carotid artery for sampling and infusion during the in vivo experiments (Obici et al., 2001). Recovery from surgery was monitored by measuring daily food intake and weight gain for 4-5 days after surgery.
Infusion protocols. The in vivo infusion experiments lasted a total of 360 min, and the experiments were carried out in rats that had their food removed ˜5 h before the experiments. Thus, at the time of the experiment, the rats are in post-absorptive state since their stomach should be completely emptied by 5 h fasting. […] This ICV glucose protocol physiologically elevate hypothalamic glucose concentration by ˜70% as previously described (Lam et al., 2005b) and is similar to that induced by a doubling of the circulating glucose levels (Lam et al., 2005b). During the ICV infusions, we monitored the plasma metabolite levels under pre-infused (0 min), basal (180-240 min) and pancreatic clamp (300-360 min) conditions. […] A basal insulin-pancreatic clamp was performed in the final 2 h (240-360 min) of the study as previously described (Lam et al., 2005b). In brief, a continuous infusion of insulin (1 mU/kg.min) and somatostatin (3 μg/kg.min) was administered, and a variable infusion of a 25% glucose solution was started and periodically adjusted to clamp and maintain the plasma glucose concentration at ˜8 mM. […] To examine the time-dependent effects of ICY glucose on plasma triglycerides, ICY (5 μl/h) 2 mM D-glucose or mannitol was administrated for 210 min and plasma triglyceride levels were monitored at 0, 20, 60, 120, 180, 210 min. […] Plasma triglycerides were monitored under basal, pancreatic clamp and tyloxapol-treated conditions. At the end of the infusion experiments, rats were anesthetized and tissue samples were freeze-clamped in situ with aluminum tongs pre-cooled in liquid nitrogen. All tissue samples were stored at −80° C. for subsequent analysis.
Biochemical analyses. Plasma glucose concentrations were measured by the glucose oxidase method (Glucose Analyzer II, Beckman Instruments, Inc., Fullerton, Calif.). […] FFA concentrations were determined by an enzyme assay in accordance with the manufacturer's specifications (Waco Pure Chemical Industries. Osaka. Japan). Plasma insulin concentrations (with rat and porcine insulin standards) were measured by radioimmunoassay (RIA). Plasma adiponectin concentrations were measured by RIA (Linco Inc., Austin, Tex., USA). Liver triglycerides were measured as described (Muse et al., 2004).
Calculations. Statistical analysis was done by unpaired Student's t test or analysis of variance as appropriate. Data are presented as means±SEM. All values were collapsed into a single value for each animal prior to the calculation of mean. The time period 180-240 min was averaged for the basal and the time period 300-360 min was averaged for the clamp conditions.

[2] = central administration of glucose

O=C[C@H](O)[C@@H](O)[C@H](O)[C@H](O)CO [glucose, D-glucose]
hepatic content of lipogenic enzymes acetyl-CoA carboxylase and fatty acid synthase ([1]; ICV glucose): failed to alter the hepatic content of these lipogenic enzymes
expression of MTP in the liver [1, 2]: not affected
hepatic ApoB48 levels [1, 2]: not decreased
decrease in plasma triglyceride levels (male Sprague-Dawley rats; ICV glucose, within 2 h, fraction): ⅓
maximal hypolipidemic effect (decrease in plasma triglycerides) (male Sprague-Dawley rats; ICV glucose, within 3 h): ~75%
plasma free fatty acids levels (male Sprague-Dawley rats; ICV infusion): did not modify plasma fatty acids levels
plasma triglyceride levels (male Sprague-Dawley rats; ICV infusion (glucose 2 mM, L-lactate 5 mM)): markedly decreased the circulating levels of triglycerides

Reference: patent publication US20110207694A1, “MAMMALIAN HYPOTHALAMIC NUTRIENT MODULATION OF GLUCOSE METABOLISM” (priority 2005, published 2011)
